According to US20100022582A1, “Tetrahydroisoquinoline Compound and Medicinal Use Thereof” (priority 2005, published 2010):

Assays:
liver ACAT = experiment: ACAT inhibitory activity (rabbit liver microsome, cholesteryl oleate production); assay type: biochemical, Japanese white rabbits; conditions: 37° C. for 20 min
Description: Male Japanese white rabbits (body weight 2-2.5 kg) were bred on 100 g of a high cholesterol feed (feed added with cholesterol 1%, CLEA Japan, Inc.) daily for 4 weeks and sacrificed by exsanguination under anesthesia. The liver was removed, homogenated and centrifuged at 10,000 rpm and 4° C. for 15 min. The obtained supernatant was further centrifuged at 41,000 rpm and 4° C. for 60 min to give a microsome fraction. To a 0.15 M phosphate buffer were added the microsome suspension as an enzyme specimen, dimethyl sulfoxide (DMSO) or a solution (3 μL) of a test compound in DMSO and [1-14C]-oleoyl-CoA to be a reaction substrate to the total amount of 300 μL. After incubation at 37° C. for 20 min, a mixed solution of chloroform-methanol was added to quench the reaction. Water was added thereto and mixed, and the chloroform layer was separated. The solvent was evaporated to dryness and the residue was redissolved in n-hexane. The resulting solution was subjected to thin layer chromatography using a silica gel plate. The spot of cholesteryl oleate on the silica gel plate was scraped and quantified on a liquid scintillation counter. The ACAT inhibitory activity of the test compound is shown in cholesteryl oleate production inhibitory rate (%) [level of inhibition of cholesteryl oleate production as compared to the control].

[1] = test system: brain homogenate lipid peroxidation; experiment: Lipid peroxidation-inhibitory action (brain homogenate, MDA); assay type: biochemical, SD rat; conditions: rat brain homogenate, 37° C. for 30 min
Description: The brain was removed from male SD rat, and a 50 mM phosphate buffer (pH 7.4, 5-fold amount of brain weight) was added. The mixture was homogenized under ice-cooling for 30 sec, and centrifuged at 4° C., 3200 rpm for 10 min. The supernatant was diluted 5-fold with 50 mM phosphate buffer to give a brain homogenate. A test compound (10 μL) was placed in a glass test tube, the brain homogenate (1 mL) was added, and the mixture was incubated at 37° C. for 30 min. 20% Trichloroacetic acid (1 mL) was added to quench the reaction. The reaction mixture was centrifuged at room temperature, 4000 rpm for 10 min. Thiobarbituric acid (0.2 mL) was added to the supernatant (1 mL) and the mixture was heated at 95° C. for 15 min. The absorbance at 532 nm was measured, and lipid peroxide was quantified as malondialdehyde (MDA). The MDA level was compared between the control and the test compound-added sample, and the lipid peroxidation inhibitory rate was calculated.

[2] = test system: THP-1 cell-derived macrophage; experiment: Cholesterol ester accumulation-inhibitory activity (THP-1 cell-derived macrophage foam cell formation); assay type: cell-based; conditions: THP-1 macrophage, acetyl LDL, 3 days
Description: THP-1 cells (DAINIPPON PHARMACEUTICAL CO., LTD.) were subcultured in RPMI-1640 medium containing 10% fetal calf serum (FBS), and cells at 6-13th passage after purchase were used. The cells were suspended in FBS-containing RPMI-1640 medium to give a suspension having a concentration of 4×10^5 cells/mL. The cell suspension was seeded on 12-well microplate by 1 mL, and treated with phorbol 12-myristate 13-acetate (PMA, 200 nM) as a differentiation inducer into macrophage. Then, acetyl LDL (400 μg/mL) separately prepared from LDL derived from plasma of a rabbit with genetic hyperlipidemia (KHC rabbit, Japan Laboratory Animals Inc.) was added. A test compound further dissolved in dimethyl sulfoxide (DMSO) and diluted with FBS-containing RPMI-1640 medium and a control solvent were applied. After cultivation in a carbon dioxide incubator for 3 days, the cells were washed with phosphate-buffered saline (pH 7.0), and the lipid was extracted with hexane-isopropanol (3:2). In addition, the cells were lysed with 1N-NaOH, and the protein content was measured. Free cholesterol and cholesterol ester in the lipid extraction sample were measured according to the method of Kunitomo et al. [Japan. J. Pharmacol., 34, 153-158 (1984)]. Cholesterol esters in the control cells and the cells treated with the test compound were compared, and the cholesterol ester accumulation inhibitory rate of the test compound was calculated.

SMILES | liver ACAT inhibition rate (%) (concentration: 10^−6 M) (liver ACAT) | inhibitory rate (%) (10^−4M), lipid peroxidation [1] | cholesteryl ester accumulation inhibitory rate (%) (concentration: 10^−6 M) [2]
CCCCCCCC(=O)N1Cc2ccccc2C[C@H]1C(=O)Nc1c(C(C)C)cccc1C(C)C [Example 3, N-(2,6-diisopropylphenyl)-2-octanoyl-1,2,3,4-tetrahydroisoquinoline-(3S)-carboxamide] | 93.3% | – | –
CCCCCCCC(=O)N1Cc2ccccc2C[C@H]1C(=O)Nc1c(C)cc(C)cc1C [Example 9, 2-octanoyl-N-(2,4,6-trimethylphenyl)-1,2,3,4-tetrahydroisoquinoline-(3S)-carboxamide] | 88.6% | – | –
CCCCC(=O)N1Cc2ccccc2C[C@H]1C(=O)Nc1cc(C(C)(C)C)c(O)c(C(C)(C)C)c1 [Example 13, N-(3,5-di-tert-butyl-4-hydroxyphenyl)-2-pentanoyl-1,2,3,4-tetrahydroisoquinoline-(3S)-carboxamide] | – | 100.1% | –
CCC(C)(C)C(=O)N1Cc2ccccc2C[C@H]1C(=O)Nc1c(C)cc(C)c(NS(C)(=O)=O)c1C [Example 19, 2-(2,2-dimethylbutyryl)-N-(3-methanesulfonylamino-2,4,6-trimethylphenyl)-1,2,3,4-tetrahydroisoquinoline-(3S)-carboxamide] | – | – | 66.4%
CCCCCCCC(=O)N1Cc2ccccc2C[C@@H]1C(=O)Nc1c(C)cc(C)cc1C [Example 26, 2-octanoyl-N-(2,4,6-trimethylphenyl)-1,2,3,4-tetrahydroisoquinoline-(3R)-carboxamide] | 83.8% | – | –
CCCCCCCC(=O)N1Cc2ccccc2C[C@H]1C(=O)Nc1cc(C)c(O)c(C)c1C [Example 49, N-(4-hydroxy-2,3,5-trimethylphenyl)-2-octanoyl-1,2,3,4-tetrahydroisoquinoline-(3S)-carboxamide] | 96.8% | – | –
CCCC(=O)N1Cc2cc(N(C)C)ccc2C[C@H]1C(=O)Nc1cc(C)c(O)c(C)c1C.Cl [Example 71, 2-butyryl-7-dimethylamino-N-(4-hydroxy-2,3,5-trimethylphenyl)-1,2,3,4-tetrahydroisoquinoline-(3S)-carboxamide hydrochloride] | – | – | 79.2%
CCCCCC(=O)N1Cc2cc(N(C)C)ccc2C[C@@H]1C(=O)Nc1cc(C)c(O)c(C)c1C.Cl [Example 74, 7-dimethylamino-2-hexanoyl-N-(4-hydroxy-2,3,5-trimethylphenyl)-1,2,3,4-tetrahydroisoquinoline-(3R)-carboxamide hydrochloride] | – | – | 74.7%
CCC(C)(C)C(=O)N1Cc2cc(N(C)C)ccc2C[C@@H]1C(=O)Nc1cc(C)c(O)c(C)c1C.Cl [Example 75, 7-dimethylamino-2-(2,2-dimethylbutyryl)-N-(4-hydroxy-2,3,5-trimethylphenyl)-1,2,3,4-tetrahydroisoquinoline-(3R)-carboxamide hydrochloride] | 88.8% | – | 93.4%
CCCCCCCC(=O)N1Cc2cc(N(C)C)ccc2C[C@H]1C(=O)Nc1c(C)cc(C)cc1C [Example 76, 7-dimethylamino-2-octanoyl-N-(2,4,6-trimethylphenyl)-1,2,3,4-tetrahydroisoquinoline-(3S)-carboxamide] | 76.7% | – | –
CCCCCC(=O)N1Cc2cc(N)ccc2C[C@H]1C(=O)Nc1cc(C)c(O)c(C)c1C.Cl [Example 80, 7-amino-2-hexanoyl-N-(4-hydroxy-2,3,5-trimethylphenyl)-1,2,3,4-tetrahydroisoquinoline-(3S)-carboxamide hydrochloride] | 93.4% | – | 94.5%
CCCCCC(=O)N1Cc2cc(N(C)C)ccc2C[C@H]1C(=O)Nc1cc(C)c(O)c(C)c1C.Cl [Example 83, 7-dimethylamino-2-hexanoyl-N-(4-hydroxy-2,3,5-trimethylphenyl)-1,2,3,4-tetrahydroisoquinoline-(3S)-carboxamide hydrochloride] | 97.0% | – | 100.2%
CCC(=O)N1Cc2cc(N3CCCC3)ccc2C[C@H]1C(=O)Nc1cc(C)c(O)c(C)c1C.Cl [Example 91, N-(4-hydroxy-2,3,5-trimethylphenyl)-2-propionyl-7-(pyrrolidin-1-yl)-1,2,3,4-tetrahydroisoquinoline-(3S)-carboxamide hydrochloride] | – | – | 71.1%
Cc1cc(NC(=O)[C@@H]2Cc3ccc(N4CCCC4)cc3CN2C(=O)C(C)C)c(C)c(C)c1O.Cl [Example 93, N-(4-hydroxy-2,3,5-trimethylphenyl)-2-isobutyryl-7-(pyrrolidin-1-yl)-1,2,3,4-tetrahydroisoquinoline-(3S)-carboxamide hydrochloride] | – | – | 83.4%
CCCCCC(=O)N1Cc2cc(NS(C)(=O)=O)ccc2C[C@H]1C(=O)Nc1cc(C)c(O)c(C)c1C [Example 95, 2-hexanoyl-N-(4-hydroxy-2,3,5-trimethylphenyl)-7-methanesulfonylamino-1,2,3,4-tetrahydroisoquinoline-(3S)-carboxamide] | – | – | 80.4%
CCC(C)(C)C(=O)N1Cc2cc(N)ccc2C[C@H]1C(=O)Nc1cc(C)c(O)c(C)c1C.Cl [Example 104, 7-amino-2-(2,2-dimethylbutyryl)-N-(4-hydroxy-2,3,5-trimethylphenyl)-1,2,3,4-tetrahydroisoquinoline-(3S)-carboxamide hydrochloride] | 80.6% | – | 77.3%
Cc1cc(NC(=O)[C@@H]2Cc3ccc(NS(C)(=O)=O)cc3CN2C(=O)CC(C)(C)C)c(C)c(C)c1O [Example 106, 2-(3,3-dimethylbutyryl)-N-(4-hydroxy-2,3,5-trimethylphenyl)-7-methanesulfonylamino-1,2,3,4-tetrahydroisoquinoline-(3S)-carboxamide] | 89.6% | – | 76.9%
CCCCCC(=O)N1Cc2cc(O)ccc2C[C@H]1C(=O)Nc1c(C(C)C)cc(N)cc1C(C)C.Cl [Example 114, N-(4-amino-2,6-diisopropylphenyl)-2-hexanoyl-7-hydroxy-1,2,3,4-tetrahydroisoquinoline-(3S)-carboxamide hydrochloride] | 87.5% | – | –
CCCCCC(=O)N1Cc2cc(O)ccc2C[C@H]1C(=O)Nc1cc(C)c(O)c(C)c1C [Example 116, 2-hexanoyl-7-hydroxy-N-(4-hydroxy-2,3,5-trimethylphenyl)-1,2,3,4-tetrahydroisoquinoline-(3S)-carboxamide] | 97.2% | – | –
CCCCCC(=O)N1Cc2cc(OCCN3CCCC3)ccc2C[C@H]1C(=O)Nc1cc(C)c(O)c(C)c1C.Cl [Example 118, 2-hexanoyl-N-(4-hydroxy-2,3,5-trimethylphenyl)-7-[2-(pyrrolidin-1-yl)ethoxy]-1,2,3,4-tetrahydroisoquinoline-(3S)-carboxamide hydrochloride] | – | – | 68.6%
CCCCCC(=O)N1Cc2cc(OCCCO)ccc2C[C@H]1C(=O)Nc1cc(C)c(O)c(C)c1C [Example 119, 2-hexanoyl-7-(3-hydroxypropoxy)-N-(4-hydroxy-2,3,5-trimethylphenyl)-1,2,3,4-tetrahydroisoquinoline-(3S)-carboxamide] | – | – | 84.5%
CCCCCC(=O)N1Cc2cc(N3CCNCC3)ccc2C[C@H]1C(=O)Nc1cc(C)c(O)c(C)c1C [Example 121, 2-hexanoyl-N-(4-hydroxy-2,3,5-trimethylphenyl)-7-(piperazin-1-yl)-1,2,3,4-tetrahydroisoquinoline-(3S)-carboxamide] | – | – | 86.8%
